The text below walks through data of patent publication US12559506B2, “Indazole based compounds and associated methods of use” (Arvinas Operations, Inc., priority 2021, dated 2026).

The target in one assay is T1, G2019S LRRK2 (Homo sapiens, UniProt Q5S007, G2019S).
T1 construct: expressed in transfected cells; host or cells: HEK293 (ATCC CRL-1573), transient transfection, mammalian expression vector with ubiquitin promoter
Kind of assay: LRRK2 degradation assay, HiBit-tagged G2019S LRRK2 expressed from plasmid in HEK293 cells (Nano-Glo Dual-Luciferase). The format is cell-based. The conditions noted are these: HiBit-tagged G2019S LRRK2 in HEK293 cells, 24 hours. The source says: (§1) Exemplary Assay for Testing LRRK2 Degradation Driven by Exemplary Hetero-Bifunctional Compounds Designed to Target LRRK2
(§2) The assay measures the degradation of wildtype and G2019S LRRK2 tagged with a HiBit tag on the C-terminus of the protein that was expressed from a mammalian expression vector, driven by the ubiquitin promoter in HEK293 cells. Each compound dose-response was repeated on two separate days, on three separate plates each day.
(§3) Plasmid Preparation. Transfection mixes were assembled as follows and incubated for 30 minutes at room temperature. In a 15 mL tube, 5.25 mL Opti-MEM (no additions) was mixed with 17 μL Firefly Luciferase plasmid at 1 μg/μL and 158 μL WT plasmid DNA at 1 μg/μL (175 μg total DNA) were mixed by flicking. In a new 15 mL tube, 5.25 mL OptiMEM was mixed with 17 μL Firefly Luciferase plasmid at 1 μg/μL and 158 μL G2019S plasmid DNA at 1 μg/μL (175 μg total DNA) were mixed by flicking. X-tremeGene HP was mixed thoroughly using a vortex. Next, 175 μL was added to each tube and flicked to mix. Both tubes were left to incubate for 30 minutes at room temperature.
(§4) While the transfection mixes were incubating, HEK293 cells (acquired from ATCC; ATCC CRL-1573) were harvested with trypsin. Once cells are detached, the cells were resuspended in 12 mL OptiMEM+5% FBS and transferred to a 50 mL tube. The cells were mixed well and counted. Using OptiMEM+5% FBS, the cells were diluted in two 250 mL conical tubes at 0.71×10^6 cells/mL in 70 mL. One tube was labeled “WT” and the other “G2019S”. The WT and G2019S transfection mixes were added dropwise to the corresponding 250 mL tubes. The tubes were mixed first by pipetting then by swirling. The tubes were incubated at room temperature for at least 5 minutes.
(§5) Each tube was swirled before dispensing and after every three plates. Seventy microliters of cells were dispensed with WT or G2019S DNA to seven plates each. Three plates of each were tested with compound plate one (preparation described below) and three plates of each were tested with compound plate two (preparation described below). The first plate from each set served as a “prime” plate and was not used to test compounds. Each plate was incubated in the hood for 10 minutes before placing in the 37° C. incubator for 24 hours.
(§6) Preparation of Compound and Assay Plates. Two compound plates were made using 96 well polypropylene plates. Compounds were made up at 10 mM and were diluted to 1 mM in 30 μL. Each dose response curve included a well of DMSO, as a negative control and for normalization, and a well of 0.5 μM of Compound 4 as a positive control. In addition to seven test compounds, each plate also included a dose response of Compound 4. The compound plates were spun down along at 1200 rpm for 2 minutes.
(§7) The two compound plates were then mixed and 2 μL was diluted in intermediate plates having 248 μL of Opti-Mem in each well. Next, 10 μL diluted compounds from the intermediate plates were added to each test plate (three WT and three G2019S plates per compound plate for a total of 12 assay plates). The plates were incubated for 24 hours at 37° C.
(§8) All assay plates and all Nano-Glo Dual-Luciferase Reporter Assay System components (except for the DLR substrate) were equilibrated to room temperature. Next, the luciferase buffer was mixed with the lyophilized amber bottle until fully dissolved, and 75 μL of the luciferase mixture was added to each well of each assay plate. The assay plates were incubated for 10 minutes at room temperature with shaking for at least 5 minutes, and then read on a plate reader.
(§9) Developing Plates and Analyzing Data. One milliliter of DLR substrate and 1 mL LgBiT Protein were added to the Stop and Glo buffer, and 75 μL of the mixture was added to each well of each plate. Optically clear seals were added to each plate and each plate was incubated for 20 minutes with shaking for at least 10 minutes, and then read on a plate reader. […]

The next assay deals with T2, wildtype LRRK2 (Homo sapiens, UniProt Q5S007).
T2 construct: expressed in transfected cells; host or cells: HEK293 (ATCC CRL-1573), transient transfection, mammalian expression vector with ubiquitin promoter
Kind of assay: LRRK2 degradation assay, HiBit-tagged wildtype LRRK2 expressed from plasmid in HEK293 cells (Nano-Glo Dual-Luciferase). Format: cell-based. The conditions noted are these: HiBit-tagged wildtype LRRK2 in HEK293 cells, 24 hours; for Dmax: read-out: **WT Dmax (%); for DC50: read-out: *WT DC50.
Description: as §1, §2, §3, §4, §5, §6, §7, §8, §9

The structures appear in SMILES notation.

T1 sequence (Q5S007 whole entry G2019S): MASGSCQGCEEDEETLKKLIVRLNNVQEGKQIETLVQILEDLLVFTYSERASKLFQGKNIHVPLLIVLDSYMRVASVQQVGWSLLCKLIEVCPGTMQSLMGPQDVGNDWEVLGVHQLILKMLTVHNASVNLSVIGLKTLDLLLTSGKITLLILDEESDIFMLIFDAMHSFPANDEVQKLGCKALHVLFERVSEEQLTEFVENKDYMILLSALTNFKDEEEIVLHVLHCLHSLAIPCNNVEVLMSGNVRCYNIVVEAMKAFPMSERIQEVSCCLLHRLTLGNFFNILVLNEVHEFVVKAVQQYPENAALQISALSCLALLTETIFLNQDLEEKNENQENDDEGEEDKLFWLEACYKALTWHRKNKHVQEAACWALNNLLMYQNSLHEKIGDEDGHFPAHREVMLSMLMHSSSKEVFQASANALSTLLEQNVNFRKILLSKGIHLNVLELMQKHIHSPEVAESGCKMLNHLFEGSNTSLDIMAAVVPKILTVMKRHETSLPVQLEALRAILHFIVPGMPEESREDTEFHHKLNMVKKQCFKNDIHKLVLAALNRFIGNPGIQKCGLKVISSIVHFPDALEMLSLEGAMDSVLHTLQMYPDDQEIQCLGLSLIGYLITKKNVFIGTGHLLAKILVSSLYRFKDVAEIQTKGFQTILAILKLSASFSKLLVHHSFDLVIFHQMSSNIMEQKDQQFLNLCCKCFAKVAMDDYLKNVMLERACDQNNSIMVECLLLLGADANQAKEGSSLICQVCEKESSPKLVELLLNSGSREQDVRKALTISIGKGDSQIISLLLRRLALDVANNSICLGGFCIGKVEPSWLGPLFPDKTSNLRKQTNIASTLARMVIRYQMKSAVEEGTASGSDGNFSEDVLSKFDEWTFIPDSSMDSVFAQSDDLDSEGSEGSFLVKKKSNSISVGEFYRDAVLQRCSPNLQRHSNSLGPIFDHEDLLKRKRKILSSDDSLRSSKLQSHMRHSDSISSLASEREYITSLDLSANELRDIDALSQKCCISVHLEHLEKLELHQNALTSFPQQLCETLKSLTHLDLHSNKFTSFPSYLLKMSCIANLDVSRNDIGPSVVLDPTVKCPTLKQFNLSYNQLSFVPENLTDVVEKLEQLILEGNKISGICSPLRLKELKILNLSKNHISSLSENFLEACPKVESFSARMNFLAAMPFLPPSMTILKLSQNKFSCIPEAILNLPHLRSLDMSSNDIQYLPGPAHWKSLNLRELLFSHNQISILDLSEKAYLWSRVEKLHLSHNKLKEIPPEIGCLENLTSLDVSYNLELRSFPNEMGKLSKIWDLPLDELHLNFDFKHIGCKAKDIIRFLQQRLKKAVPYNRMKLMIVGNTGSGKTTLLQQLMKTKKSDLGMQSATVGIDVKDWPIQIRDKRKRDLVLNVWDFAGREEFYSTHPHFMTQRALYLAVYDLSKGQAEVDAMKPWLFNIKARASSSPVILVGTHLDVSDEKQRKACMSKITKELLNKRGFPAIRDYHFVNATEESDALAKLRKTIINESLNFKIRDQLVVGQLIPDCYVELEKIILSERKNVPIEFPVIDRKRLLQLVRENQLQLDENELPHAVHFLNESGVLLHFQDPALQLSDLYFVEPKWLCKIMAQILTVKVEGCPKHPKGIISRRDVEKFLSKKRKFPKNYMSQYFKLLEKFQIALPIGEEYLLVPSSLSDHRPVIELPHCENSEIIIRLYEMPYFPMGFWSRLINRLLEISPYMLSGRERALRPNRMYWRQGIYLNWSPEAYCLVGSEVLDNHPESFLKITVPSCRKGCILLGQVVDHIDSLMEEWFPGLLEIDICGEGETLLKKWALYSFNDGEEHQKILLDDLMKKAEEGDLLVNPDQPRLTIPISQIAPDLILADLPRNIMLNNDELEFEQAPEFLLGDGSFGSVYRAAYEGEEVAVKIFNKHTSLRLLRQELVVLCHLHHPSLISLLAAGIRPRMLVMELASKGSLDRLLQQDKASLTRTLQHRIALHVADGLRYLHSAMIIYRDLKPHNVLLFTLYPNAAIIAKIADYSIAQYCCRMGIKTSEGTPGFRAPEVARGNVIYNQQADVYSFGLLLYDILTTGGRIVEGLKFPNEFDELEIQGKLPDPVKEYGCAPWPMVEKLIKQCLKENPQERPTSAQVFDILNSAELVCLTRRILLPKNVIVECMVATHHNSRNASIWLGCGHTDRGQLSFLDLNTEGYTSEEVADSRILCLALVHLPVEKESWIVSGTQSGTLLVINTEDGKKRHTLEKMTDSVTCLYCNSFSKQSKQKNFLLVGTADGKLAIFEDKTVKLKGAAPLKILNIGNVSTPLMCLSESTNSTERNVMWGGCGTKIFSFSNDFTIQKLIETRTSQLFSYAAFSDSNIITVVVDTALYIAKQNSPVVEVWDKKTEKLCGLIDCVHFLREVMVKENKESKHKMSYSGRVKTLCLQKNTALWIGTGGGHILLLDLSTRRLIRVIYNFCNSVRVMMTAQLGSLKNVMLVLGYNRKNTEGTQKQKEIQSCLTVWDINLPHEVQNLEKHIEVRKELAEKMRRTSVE
T2 sequence (Q5S007 whole entry): as the sequence (Q5S007 whole entry G2019S) above, with S2019G counted along it

At G2019S LRRK2, `CC1(Oc2ccc3[nH]nc(-c4cc(N5C[C@@H]6[C@@H](CN7CCN(CC8CCN(c9ccc%10c(c9)C(=O)N(C9CCC(=O)NC9=O)C%10=O)CC8)CC7)[C@@H]6C5)ncn4)c3c2)CC1` (some centres unmarked) [Compound 75, 2-(2,6-dioxopiperidin-3-yl)-5-{4-[(4-{[(1r,5s,6s)-3-{6-[5-(1-methylcyclopropoxy)-1H-indazol-3-yl]pyrimidin-4-yl}-3-azabicyclo[3.1.0]hexan-6-yl]methyl}piperazin-1-yl)methyl]piperidin-1-yl}-2,3-dihydro-1H-isoindole-1,3-dione] gave a half-maximal degradation concentration (DC50) of under 10 nM and a Dmax of at least 70%. Besides, on wildtype LRRK2, the greatest degradation seen (Dmax) was at least 70% and the DC50 is under 10 nM.
On G2019S LRRK2, `CC1(Oc2ccc3[nH]nc(-c4ccnc(N5CCC(CN6CCN(CC7CCN(c8ccc9c(c8)C(=O)N(C8CCC(=O)NC8=O)C9=O)CC7)CC6)CC5)c4)c3c2)CC1` (centres unmarked) [Compound 78, 2-(2,6-dioxo-3-piperidyl)-5-[4-[[4-[[1-[4-[5-(1-methylcyclopropoxy)-1H-indazol-3-yl]-2-pyridyl]-4-piperidyl]methyl]piperazin-1-yl]methyl]-1-piperidyl]isoindoline-1,3-dione] displayed a DC50 of under 10 nM and a Dmax of 50 to 70%. Moreover, on wildtype LRRK2, the Dmax lay in the range of 50 to 70% and the 50% degradation concentration (DC50) is under 10 nM.
On to `CC1(Oc2ccc3[nH]nc(-c4cc(N5CCC(CN6CC[C@H](OC7CCN(c8ccc9c(c8)C(=O)N(C8CCC(=O)NC8=O)C9=O)CC7)C6)CC5)ncn4)c3c2)CC1` (stereo partly drawn) [Compound 118, 2-(2,6-dioxo-3-piperidyl)-5-[4-[(3S)-1-[[1-[6-[5-(1-methylcyclopropoxy)-1H-indazol-3-yl]pyrimidin-4-yl]-4-piperidyl]methyl]pyrrolidin-3-yl]oxy-1-piperidyl]isoindoline-1,3-dione], for which, at G2019S LRRK2, the DC50 was 10 to 50 nM and the greatest degradation seen (Dmax) was under 50%. Besides, on wildtype LRRK2, the Dmax was 50 to 70% and the DC50 lay within 10 to 50 nM.
`CC1(Oc2ccc3[nH]nc(-c4cc(N5CCN(CC6(F)CCN(CC7CCN(c8ccc9c(c8)C(=O)N(C8CCC(=O)NC8=O)C9=O)CC7)CC6)CC5)ncn4)c3c2)CC1` (centres unmarked) [Compound 79, 2-(2,6-dioxo-3-piperidyl)-5-[4-[[4-fluoro-4-[[4-[6-[5-(1-methylcyclopropoxy)-1H-indazol-3-yl]pyrimidin-4-yl]piperazin-1-yl]methyl]-1-piperidyl]methyl]-1-piperidyl]isoindoline-1,3-dione]: on G2019S LRRK2, the DC50 is under 10 nM and the maximal degradation (Dmax) was in the range of 50 to 70%. In addition, on wildtype LRRK2, the Dmax was under 50% and the DC50 is under 10 nM.
On G2019S LRRK2, `CC1(Oc2ccc3[nH]nc(-c4cc(N5CCN(CC(F)(F)C6CCN(CC7CCN(c8ccc9c(c8)C(=O)N(C8CCC(=O)NC8=O)C9=O)CC7)CC6)CC5)ncn4)c3c2)CC1` (centres unmarked) [Compound 53, 5-[4-[[4-[1,1-difluoro-2-[4-[6-[5-(1-methylcyclopropoxy)-1H-indazol-3-yl]pyrimidin-4-yl]piperazin-1-yl]ethyl]-1-piperidyl]methyl]-1-piperidyl]-2-(2,6-dioxo-3-piperidyl)isoindoline-1,3-dione] displayed a 50% degradation concentration (DC50) of under 10 nM and a maximal degradation (Dmax) of 50 to 70%. In addition, at wildtype LRRK2, the maximal degradation (Dmax) is 50 to 70% and the DC50 was under 10 nM.
Regarding `CC1(Oc2ccc3[nH]nc(-c4ccnc(N5CCOC6(CN(CC7CCN(CC8CCN(c9cccc%10c9C(=O)N(C9CCC(=O)NC9=O)C%10=O)CC8)CC7)C6)C5)c4)c3c2)CC1` (centres unmarked) [Compound 144, 2-(2,6-dioxo-3-piperidyl)-4-[4-[[4-[[8-[4-[5-(1-methylcyclopropoxy)-1H-indazol-3-yl]-2-pyridyl]-5-oxa-2,8-diazaspiro[3.5]nonan-2-yl]methyl]-1-piperidyl]methyl]-1-piperidyl]isoindoline-1,3-dione], at G2019S LRRK2, the 50% degradation concentration (DC50) was in the range of 10 to 50 nM and the greatest degradation seen (Dmax) was 50 to 70%. Moreover, at wildtype LRRK2, the maximal degradation (Dmax) fell in the range of 50 to 70% and the DC50 lay within 10 to 50 nM.
At G2019S LRRK2, `CC1(Oc2ccc3n[nH]c(-c4cc(N5CCN(C(=O)C6CCN(CC7CCN(c8ccc9c(c8)C(=O)N(C8CCC(=O)NC8=O)C9=O)CC7)CC6)CC5)ncn4)c3c2)CC1` (centres unmarked) [Compound 84, 2-(2,6-dioxo-3-piperidyl)-5-[4-[[4-[4-[6-[5-(1-methylcyclopropoxy)-2H-indazol-3-yl]pyrimidin-4-yl]piperazine-1-carbonyl]-1-piperidyl]methyl]-1-piperidyl]isoindoline-1,3-dione] had a 50% degradation concentration (DC50) of under 10 nM and a Dmax of under 50%. At wildtype LRRK2, the Dmax lay in the range of 50 to 70% and the DC50 is under 10 nM.
With `CC1(Oc2ccc3n[nH]c(-c4ccnc(N5CCN(C(=O)C6CCN(CC7CCN(c8ccc9c(c8)C(=O)N(C8CCC(=O)NC8=O)C9=O)CC7)CC6)CC5)c4)c3c2)CC1` (centres unmarked) [Compound 85, 2-(2,6-dioxo-3-piperidyl)-5-[4-[[4-[4-[4-[5-(1-methylcyclopropoxy)-2H-indazol-3-yl]-2-pyridyl]piperazine-1-carbonyl]-1-piperidyl]methyl]-1-piperidyl]isoindoline-1,3-dione], at G2019S LRRK2, the 50% degradation concentration (DC50) was under 10 nM and the Dmax was under 50%. Moreover, at wildtype LRRK2, the Dmax is under 50% and the DC50 was under 10 nM.
As to `CC1(Oc2ccc3[nH]nc(-c4cc(N5CCC(CN6CCN(C(=O)C7CCN(c8ccc9c(c8)C(=O)N(C8CCC(=O)NC8=O)C9=O)CC7)CC6)CC5)ncn4)c3c2)CC1` (centres unmarked) [Compound 94, 2-(2,6-dioxopiperidin-3-yl)-5-(4-{4-[(1-{6-[5-(1-methylcyclopropoxy)-1H-indazol-3-yl]pyrimidin-4-yl}piperidin-4-yl)methyl]piperazine-1-carbonyl}piperidin-1-yl)-2,3-dihydro-1H-isoindole-1,3-dione], the DC50 on G2019S LRRK2 and on wildtype LRRK2 was under 10 nM in each case. Besides, the greatest degradation seen (Dmax) on G2019S LRRK2 and on wildtype LRRK2 was 50 to 70% throughout.
As to `CC1(Oc2ccc3[nH]nc(-c4cc(N5CCC(CN6CCN(CC7CCN(c8ccc9c(c8)C(=O)N(C8CCC(=O)NC8=O)C9=O)CC7)CC6)CC5)ncc4F)c3c2)CC1` (centres unmarked) [Compound 99, 2-(2,6-dioxo-3-piperidyl)-5-[4-[[4-[[1-[5-fluoro-4-[5-(1-methylcyclopropoxy)-1H-indazol-3-yl]-2-pyridyl]-4-piperidyl]methyl]piperazin-1-yl]methyl]-1-piperidyl]isoindoline-1,3-dione], at G2019S LRRK2, the DC50 was 50 to 100 nM and the Dmax is under 50%. Further, on wildtype LRRK2, the greatest degradation seen (Dmax) was under 50% and the half-maximal degradation concentration (DC50) was 50 to 100 nM.
On G2019S LRRK2, `C[C@H]1CN(c2cc(-c3n[nH]c4ccc(OC5(C)CC5)cc34)ncn2)CCN1CC1CCN(CCCNc2cccc3c2C(=O)N(C2CCC(=O)NC2=O)C3=O)CC1` (stereo partly drawn) [Compound 140, 2-(2,6-dioxo-3-piperidyl)-4-[3-[4-[[(2S)-2-methyl-4-[6-[5-(1-methylcyclopropoxy)-2H-indazol-3-yl]pyrimidin-4-yl]piperazin-1-yl]methyl]-1-piperidyl]propylamino]isoindoline-1,3-dione] yielded a DC50 of under 10 nM and a Dmax of under 50%. Besides, at wildtype LRRK2, the greatest degradation seen (Dmax) was under 50% and the DC50 is under 10 nM.
